Measured values as given in patent US20200385398A1, “NEW BICYCLIC DERIVATIVES” (Elanco Tiergesundheit AG, priority 2019, published 2020).

Tested on: D. immitis microfilariae
Assay: Dog heart worm microfilariae motility assay
Type: cell-based
Conditions: Dirofilaria immitis, read-out: EC50 (motility inhibition)

## O=C(NN1CCOc2ccccc21)c1cnc2c(-c3cc(F)cc(F)c3F)cccc2c1N1CCSCC1 [Example 5.10, N-(2,3-dihydro-1,4-benzoxazin-4-yl)-4-thiomorpholino-8-(2,3,5-trifluorophenyl)quinoline-3-carboxamide]
  EC50: < 0.1 µg/mL
